# Data: patent US20250215030A1, “STAT MODULATORS AND USES THEREOF” (Recludix Pharma, Inc., priority 2022, published 2025)
# What was measured:
# [1] = target: T1, Recombinant STAT6 protein (STAT6(W123-T658)) (Homo sapiens, UniProt P42226); test: STAT6 Fluorescence Polarization (FP) Assay; format: binding; conditions: STAT6(W123-T658) 250 nM, probe 5-FAM-ApYKPFQDLI-NH2 2 nM, 45-minute incubation
# T1 construct: STAT6(W123-T658)
# T1 sequence (P42226 123-658): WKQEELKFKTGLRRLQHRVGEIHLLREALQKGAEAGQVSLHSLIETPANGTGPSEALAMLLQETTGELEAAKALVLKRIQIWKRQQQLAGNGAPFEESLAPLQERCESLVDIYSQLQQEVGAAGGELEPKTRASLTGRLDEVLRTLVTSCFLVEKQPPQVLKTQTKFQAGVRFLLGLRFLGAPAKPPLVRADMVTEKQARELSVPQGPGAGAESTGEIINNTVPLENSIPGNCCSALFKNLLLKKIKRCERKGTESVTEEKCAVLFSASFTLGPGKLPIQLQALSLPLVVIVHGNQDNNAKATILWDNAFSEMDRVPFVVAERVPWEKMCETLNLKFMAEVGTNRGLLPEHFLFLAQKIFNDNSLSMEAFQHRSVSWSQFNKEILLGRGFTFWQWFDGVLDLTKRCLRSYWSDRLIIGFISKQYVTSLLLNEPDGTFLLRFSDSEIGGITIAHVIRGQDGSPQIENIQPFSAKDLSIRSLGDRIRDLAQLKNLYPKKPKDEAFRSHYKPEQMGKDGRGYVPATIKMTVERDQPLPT
# Outline: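 Competitive displacement of a fluorescent phosphotyrosine peptide (2 nM) from recombinant STAT6 W123-T658 (250 nM), 45 min at room temperature in 10 mM HEPES pH 7.4, 50 mM NaCl, 2 mM DTT. mP fitted against log compound for IC50, grouped A (≤300 nM) to D (>30 μM).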
# [2] = target: T2, Recombinant STAT3 protein (STAT3(G127-I722)) (Homo sapiens, UniProt P40763); test: STAT3 Fluorescence Polarization (FP) Assay; format: binding; conditions: STAT3(G127-I722) 25 nM, probe 5-FAM-GpYLPQTV-NH2 2 nM, 45-minute incubation
# T2 construct: STAT3(G127-I722)
# Outline: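 Serially diluted compounds (1% DMSO) were mixed with 2 nM fluorescent phosphotyrosine peptide and 25 nM STAT3 construct G127-I722, pH 7.4, incubated 45 min at room temperature. IC50 values from fitted polarization curves are reported as categories A (≤100 nM), B, C, D (>10 μM).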
# T2 sequence (P40763 127-722, species assumed): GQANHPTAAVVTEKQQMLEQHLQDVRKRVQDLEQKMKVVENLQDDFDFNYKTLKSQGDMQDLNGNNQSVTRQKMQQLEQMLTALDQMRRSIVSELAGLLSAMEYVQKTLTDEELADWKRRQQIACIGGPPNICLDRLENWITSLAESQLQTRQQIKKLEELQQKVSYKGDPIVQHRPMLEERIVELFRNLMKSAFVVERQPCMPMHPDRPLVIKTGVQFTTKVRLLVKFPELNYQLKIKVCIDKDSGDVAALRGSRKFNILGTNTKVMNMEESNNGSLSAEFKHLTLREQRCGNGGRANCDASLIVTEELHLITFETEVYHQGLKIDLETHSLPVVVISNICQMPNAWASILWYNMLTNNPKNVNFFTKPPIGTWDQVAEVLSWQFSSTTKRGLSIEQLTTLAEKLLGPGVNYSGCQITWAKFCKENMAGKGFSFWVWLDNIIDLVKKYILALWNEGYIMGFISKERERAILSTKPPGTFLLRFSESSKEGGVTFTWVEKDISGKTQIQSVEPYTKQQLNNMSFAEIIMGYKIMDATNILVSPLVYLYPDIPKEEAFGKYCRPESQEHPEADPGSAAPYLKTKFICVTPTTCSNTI
IC50 [1],IC50 [2],Structure (SMILES)
> 30 µM,< 0.1 µM,"CN(C)c1ccncc1C1CN(C(=O)[C@@H]2CC[C@@H]3C[C@@H]4C[C@@H]4C[C@H](NC(=O)c4cc5cc(CP(=O)(O)O)ccc5s4)C(=O)N32)C1 [Example 393, ((2-(((3S,6S,7aR,8aS,9aR)-3-(3-(4-(dimethylamino)pyridin-3-yl)azetidine-1-carbonyl)-5-oxodecahydro-1H-cyclopropa[d]pyrrolo[1,2-a]azocin-6-yl)carbamoyl)benzo[b]thiophen-5-yl)methyl)phosphonic acid]"
0.3 to 3 µM,< 0.1 µM,"O=C(N[C@H]1C[C@@H]2C[C@@H]2C[C@H]2CC[C@@H](C(=O)N3CC(c4cnccc4F)C3)N2C1=O)c1cc2cc(C(F)P(=O)(O)O)ccc2s1 (stereo partly drawn) [Example 262, (fluoro(2-(((3S,6S,7aS,8aR,9aR)-3-(3-(4-fluoropyridin-3-yl)azetidine-1-carbonyl)-5-oxodecahydro-1H-cyclopropa[d]pyrrolo[1,2-a]azocin-6-yl)carbamoyl)benzo[b]thiophen-5-yl)methyl)phosphonic acid]"
3 to 30 µM,0.1 to 1 µM,"CC(=O)N1CC[C@@H]2[C@H]1CN2C(=O)[C@@H]1CC[C@@H]2C[C@H]3C[C@H]3C[C@H](NC(=O)c3cc4cc(C(F)P(=O)(O)O)ccc4s3)C(=O)N21 (stereo partly drawn) [Example 290, ((2-(((3S,6S,7aS,8aR,9aR)-3-((1R,5R)-2-acetyl-2,6-diazabicyclo[3.2.0]heptane-6-carbonyl)-5-oxodecahydro-1H-cyclopropa[d]pyrrolo[1,2-a]azocin-6-yl)carbamoyl)benzo[b]thiophen-5-yl)fluoromethyl)phosphonic acid]"
3 to 30 µM,< 0.1 µM,"O=C(N[C@H]1C[C@H]2C[C@H]2C[C@H]2CC[C@@H](C(=O)N3CC(c4ccon4)C3)N2C1=O)c1cc2cc([C@H](F)P(=O)(O)O)ccc2s1 (single isomer, unassigned) [Example 346]"
3 to 30 µM,1 to 10 µM,"O=C(N[C@H]1C[C@@H]2C[C@@H]2C[C@H]2CC[C@@H](C(=O)N3CCOc4ccccc43)N2C1=O)c1cc2cc(C(F)P(=O)(O)O)ccc2s1 (stereo partly drawn) [Example 372, ((2-(((3S,6S,7aS,8aR,9aR)-3-(3,4-dihydro-2H-benzo[b][1,4]oxazine-4-carbonyl)-5-oxodecahydro-1H-cyclopropa[d]pyrrolo[1,2-a]azocin-6-yl)carbamoyl)benzo[b]thiophen-5-yl)fluoromethyl)phosphonic acid]"
0.3 to 3 µM,< 0.1 µM,"O=C(N[C@H]1C[C@@H]2C[C@@H]2C[C@H]2CC[C@@H](C(=O)N3CC(c4cnccc4F)C3)N2C1=O)c1cc2cc(C(F)(F)P(=O)(O)O)ccc2s1 [Example 303, (difluoro(2-(((3S,6S,7aS,8aR,9aR)-3-(3-(4-fluoropyridin-3-yl)azetidine-1-carbonyl)-5-oxodecahydro-1H-cyclopropa[d]pyrrolo[1,2-a]azocin-6-yl)carbamoyl)benzo[b]thiophen-5-yl)methyl)phosphonic acid]"
3 to 30 µM,0.1 to 1 µM,"CC(=O)N1CC(NC(=O)[C@@H]2CC[C@@H]3C[C@H]4C[C@H]4C[C@H](NC(=O)c4cc5cc(C(F)P(=O)(O)O)ccc5s4)C(=O)N32)C(F)(F)C1 (stereo partly drawn) [Example 358, ((2-(((3S,6S,7aS,8aR,9aR)-3-((1-acetyl-4,4-difluoropyrrolidin-3-yl)carbamoyl)-5-oxodecahydro-1H-cyclopropa[d]pyrrolo[1,2-a]azocin-6-yl)carbamoyl)benzo[b]thiophen-5-yl)fluoromethyl)phosphonic acid]"
> 30 µM,0.1 to 1 µM,"CC(c1ccc2sc(C(=O)N[C@H]3C[C@@H]4C[C@@H]4C[C@H]4CC[C@@H](C(=O)N5CC(C(=O)N6CCOCC6)C5)N4C3=O)cc2c1)P(=O)(O)O (stereo partly drawn) [Compound 35, (1-(2-(((3S,6S,7aS,8aR,9aR)-3-(3-(morpholine-4-carbonyl)azetidine-1-carbonyl)-5-oxodecahydro-1H-cyclopropa[d]pyrrolo[1,2-a]azocin-6-yl)carbamoyl)benzo[b]thiophen-5-yl)ethyl)phosphonic acid]"
3 to 30 µM,< 0.1 µM,"N#Cc1cccc(C2CN(C(=O)[C@@H]3CC[C@@H]4C[C@H]5C[C@H]5C[C@H](NC(=O)c5cc6cc(C(F)(F)P(=O)(O)O)ccc6s5)C(=O)N43)C2)c1 [Compound 49, ((2-(((3S,6S,7aS,8aR,9aR)-3-(3-(3-cyanophenyl)azetidine-1-carbonyl)-5-oxodecahydro-1H-cyclopropa[d]pyrrolo[1,2-a]azocin-6-yl)carbamoyl)benzo[b]thiophen-5-yl)difluoromethyl)phosphonic acid]"
3 to 30 µM,< 0.1 µM,"CCc1ccncc1C1CN(C(=O)[C@@H]2CC[C@@H]3C[C@H]4C[C@H]4C[C@H](NC(=O)c4cc5cc(C(F)P(=O)(O)O)ccc5s4)C(=O)N32)C1 (stereo partly drawn) [Example 266, ((2-(((3S,6S,7aS,8aR,9aR)-3-(3-(4-ethylpyridin-3-yl)azetidine-1-carbonyl)-5-oxodecahydro-1H-cyclopropa[d]pyrrolo[1,2-a]azocin-6-yl)carbamoyl)benzo[b]thiophen-5-yl)fluoromethyl)phosphonic acid]"
3 to 30 µM,0.1 to 1 µM,"O=C(N[C@H]1C[C@@H]2C[C@@H]2C[C@H]2CC[C@@H](C(=O)N3CC[C@H](N4CCOCC4)C3)N2C1=O)c1cc2cc(C(F)(F)P(=O)(O)O)ccc2s1 [Compound 17, (difluoro(2-(((3S,6S,7aS,8aR,9aR)-3-((S)-3-morpholinopyrrolidine-1-carbonyl)-5-oxodecahydro-1H-cyclopropa[d]pyrrolo[1,2-a]azocin-6-yl)carbamoyl)benzo[b]thiophen-5-yl)methyl)phosphonic acid]"
3 to 30 µM,0.1 to 1 µM,O=C(N[C@H]1C[C@H]2C[C@H]2C[C@H]2CC[C@@H](C(=O)N3CC(N4CCS(=O)(=O)CC4)C3)N2C1=O)c1cc2cc(C(F)P(=O)(O)O)ccc2s1 (stereo partly drawn) [Example 302]
3 to 30 µM,0.1 to 1 µM,"O=C(N[C@H]1C[C@H]2C[C@H]2C[C@H]2CC[C@@H](C(=O)N3CCN(C4CCOCC4)CC3)N2C1=O)c1cc2cc(C(F)(F)P(=O)(O)O)ccc2s1 [Compound 125, (difluoro(2-(((3S,6S,7aR,8aS,9aR)-5-ox0-3-(4-(tetrahydro-2H-pyran-4-yl)piperazine-1-carbonyl)decahydro-1H-cyclopropa[d]pyrrolo[1,2-a]azocin-6-yl)carbamoyl)benzo[b]thiophen-5-yl)methyl)phosphonic acid]"
3 to 30 µM,0.1 to 1 µM,"CC(=O)N1CCC2C1CN2C(=O)[C@@H]1CC[C@@H]2C[C@H]3C[C@H]3C[C@H](NC(=O)c3cc4cc(C(F)P(=O)(O)O)ccc4s3)C(=O)N21 (stereo in doubt) [Example 289, ((2-(((3S,6S,7aS,8aR,9aR)-3-((1S,5S)-2-acetyl-2,6-diazabicyclo[3.2.0]heptane-6-carbonyl)-5-oxodecahydro-1H-cyclopropa[d]pyrrolo[1,2-a]azocin-6-yl)carbamoyl)benzo[b]thiophen-5-yl)fluoromethyl)phosphonic acid]"
3 to 30 µM,0.1 to 1 µM,"O=C(N[C@H]1C[C@@H]2C[C@@H]2C[C@H]2CC[C@@H](C(=O)N3CCN(c4ccccn4)CC3)N2C1=O)c1cc2cc(C(F)(F)P(=O)(O)O)ccc2s1 [Compound 113, (difluoro(2-(((3S,6S,7aS,8aR,9aR)-5-ox0-3-(4-(pyridin-2-yl)piperazine-1-carbonyl)decahydro-1H-cyclopropa[d]pyrrolo[1,2-a]azocin-6-yl)carbamoyl)benzo[b]thiophen-5-yl)methyl)phosphonic acid]"
